According to ChEMBL document CHEMBL1201862, “PubChem BioAssay data set” (2004):
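In this assay, cells in 96-well plates receive the compound at five concentrations for 48 hours. Endpoints are linearly interpolated between the surrounding concentrations. GI50 is the concentration that inhibits growth by half.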 Active and inactive are the calls of the source. No stated cut-off is given here; in the data, active = GI50 up to about 1.1 µM and inactive = higher.

How the values were obtained:
Assay in all cases: NCI anticancer screen, dose series, 48 h
786-0 = tested on: 786-0
BT-549 = tested on: BT-549
COLO 205 = tested on: COLO 205
DU-145 = tested on: DU-145
HCT-15 = tested on: HCT-15
HL-60 = tested on: HL-60
KM12 = tested on: KM12
MCF7 = tested on: MCF7
MDA-MB-231 = tested on: MDA-MB-231
MDA-MB-435 = tested on: MDA-MB-435
MDA-N = tested on: MDA-N
Malme-3M = tested on: Malme-3M
NCI-H460 = tested on: NCI-H460
NCI/ADR-RES = tested on: NCI/ADR-RES
OVCAR-5 = tested on: OVCAR-5
RXF 393 = tested on: RXF 393
SF-268 = tested on: SF-268
SF-295 = tested on: SF-295
SNB-19 = tested on: SNB-19
SNB-75 = tested on: SNB-75

Structure (SMILES) | GI50 (786-0) | GI50 (BT-549) | GI50 (COLO 205) | GI50 (DU-145) | GI50 (HCT-15) [µM] | GI50 (HL-60) | GI50 (KM12) | GI50 (MCF7) | GI50 (MDA-MB-231) | GI50 (MDA-MB-435) | GI50 (MDA-N) | GI50 (Malme-3M) | GI50 (NCI-H460) | GI50 (NCI/ADR-RES) | GI50 (OVCAR-5) | GI50 (RXF 393) | GI50 (SF-268) | GI50 (SF-295) | GI50 (SNB-19) | GI50 (SNB-75)
Cc1ccc(Nc2cc(=O)[nH]c(=S)[nH]2)cc1 | > 100 µM (inactive) | > 100 µM (inactive) | > 100 µM (inactive) | > 100 µM (inactive) | > 100 | > 100 µM (inactive) | > 100 µM (inactive) | > 100 µM (inactive) | > 100 µM (inactive) | > 100 µM (inactive) | > 100 µM (inactive) | > 100 µM (inactive) | > 100 µM (inactive) | > 100 µM (inactive) | > 100 µM (inactive) | > 100 µM (inactive) | > 100 µM (inactive) | > 100 µM (inactive) | > 100 µM (inactive) | > 100 µM (inactive)
O=C(OC1OC2COC(=O)c3cc(O)c(O)c(O)c3-c3c(cc(O)c(O)c3O)C(=O)OC3C2OC(=O)[C@@]24CC(=O)[C@@](O)(OC25C(=O)O[C@H]2[C@@H](O)CO[C@@]25O)C2(O)Oc5c(O)c(O)cc(c5C24)C(=O)OC13)c1cc(O)c(O)c(O)c1 (stereo not given in full) | 63.1 µM (inactive) | > 100 µM (inactive) | 56.4 µM (inactive) | 44.7 µM (inactive) | 22.9 | 21.2 µM (inactive) | 18.8 µM (inactive) | 13.6 µM (inactive) | 0.857 µM (active) | 17.2 µM (inactive) | 31.5 µM (inactive) | > 100 µM (inactive) | 40.9 µM (inactive) | 29.2 µM (inactive) | 47.2 µM (inactive) | > 100 µM (inactive) | 58.6 µM (inactive) | 44 µM (inactive) | > 100 µM (inactive) | 34 µM (inactive)
N#CCc1nc(-c2cc3ccc(O)cc3oc2=O)cs1 | > 100 µM (inactive) | 25.2 µM (inactive) | > 100 µM (inactive) | 83.4 µM (inactive) | 35.9 | 29.2 µM (inactive) | 28.5 µM (inactive) | 47.6 µM (inactive) | 95.1 µM (inactive) | 33.1 µM (inactive) | 48.9 µM (inactive) | > 100 µM (inactive) | 50 µM (inactive) | > 100 µM (inactive) | > 100 µM (inactive) | 84.7 µM (inactive) | 83.2 µM (inactive) | 33.2 µM (inactive) | > 100 µM (inactive) | 57 µM (inactive)
CCN(CC)C(=S)Nc1ccc(-c2cc3ccc(O)cc3oc2=O)cc1 | 39.4 µM (inactive) | 26.1 µM (inactive) | 29.4 µM (inactive) | 29.8 µM (inactive) | 19.7 | 3.76 µM (inactive) | 28.8 µM (inactive) | > 10 µM (inactive) | 39.4 µM (inactive) | 28.6 µM (inactive) | 24.8 µM (inactive) | 17 µM (inactive) | 31.4 µM (inactive) | 20.6 µM (inactive) | 26.2 µM (inactive) | 30.2 µM (inactive) | 32.1 µM (inactive) | 36.5 µM (inactive) | 29.9 µM (inactive) | 16.4 µM (inactive)
CCOC(=O)C12CCC(c3c(C)cccc3C)(O1)C(C(=O)OC)=C2C(=O)OC (stereo not given) | 3.08 µM (inactive) | 4 µM (inactive) | 1.87 µM (inactive) | 4.24 µM (inactive) | 4.69 | 1.82 µM (inactive) | 4.28 µM (inactive) | 1.3 µM (inactive) | 5.07 µM (inactive) | 0.499 µM (active) | 0.484 µM (active) | 1.05 µM (active) | 2.23 µM (inactive) | > 9.25 µM (inactive) | 3.19 µM (inactive) | 4.71 µM (inactive) | > 6.89 µM (inactive) | 5.45 µM (inactive) | > 9.64 µM (inactive) | 3.64 µM (inactive)
CCCCCCCCCCCCCC(=O)N(CCCCCCCCC)CC(O)C(O)C(OC1OC(CO)C(O)C(O)C1O)C(O)CO (stereo not given) | 17.1 µM (inactive) | 22.9 µM (inactive) | 20.5 µM (inactive) | 16.5 µM (inactive) | 23.6 | 23.3 µM (inactive) | 17.7 µM (inactive) | 36.5 µM (inactive) | 20.7 µM (inactive) | 19.8 µM (inactive) | 21.6 µM (inactive) | 18.3 µM (inactive) | 20.1 µM (inactive) | 18.8 µM (inactive) | 32.9 µM (inactive) | 24.3 µM (inactive) | 19.1 µM (inactive) | 20.7 µM (inactive) | 24.5 µM (inactive) | 19.5 µM (inactive)
COc1ccc(CC(N)c2ccc(OC)cc2)cc1 (stereo not given) | > 100 µM (inactive) | > 100 µM (inactive) | 18.2 µM (inactive) | > 100 µM (inactive) | > 100 | 49.7 µM (inactive) | 50 µM (inactive) | 44.5 µM (inactive) | 84.9 µM (inactive) | 37.2 µM (inactive) | 36.8 µM (inactive) | 37.4 µM (inactive) | 39.9 µM (inactive) | > 100 µM (inactive) | > 100 µM (inactive) | 72.1 µM (inactive) | > 100 µM (inactive) | > 100 µM (inactive) | > 100 µM (inactive) | 77.1 µM (inactive)
Oc1ccc(Cl)cc1C1=NC(NCN2CCN(CNC3=NC(c4ccccc4)CC(c4cc(Cl)ccc4O)=N3)CC2)=NC(c2ccccc2)C1 (stereo not given) | 20.9 µM (inactive) | 52.2 µM (inactive) | 47.4 µM (inactive) | 41.8 µM (inactive) | 24.4 | 28.4 µM (inactive) | 37.1 µM (inactive) | 9.08 µM (inactive) | > 100 µM (inactive) | 48.6 µM (inactive) | 50.2 µM (inactive) | 93.5 µM (inactive) | 35.2 µM (inactive) | 38.4 µM (inactive) | 50.9 µM (inactive) | 22 µM (inactive) | 32.7 µM (inactive) | 32.3 µM (inactive) | 41.6 µM (inactive) | 35.6 µM (inactive)
O=C(CCc1ccccc1)ON1C(=S)NC(c2ccccc2)(c2ccccc2)C1=S | 19.7 µM (inactive) | 37.8 µM (inactive) | 40.2 µM (inactive) | 68.1 µM (inactive) | 28.4 | 21.6 µM (inactive) | 27.4 µM (inactive) | 32.9 µM (inactive) | 51.3 µM (inactive) | 36.9 µM (inactive) | 38.1 µM (inactive) | 20.8 µM (inactive) | 31.6 µM (inactive) | 28.5 µM (inactive) | 61.4 µM (inactive) | 36 µM (inactive) | 28.2 µM (inactive) | 42 µM (inactive) | 64.4 µM (inactive) | 33 µM (inactive)
